Assay results as given in patent US8710065B2, “Tricyclic inhibitors of kinases” (AbbVie Inc., priority 2011, dated 2014).

biological target: T1, GST-tagged-Wee1 kinase (Homo sapiens, UniProt P30291); assay: Wee1 time-resolved fluorescence equilibrium binding assay (displacement of Oregon Green-labeled ATP-competitive kinase probe); conditions: read-out: Wee-1 inhibition (Ki)
T1 construct: purchased Carnabio (Carna Biosciences) 05-177
In short: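 Time-resolved fluorescence equilibrium binding with GST-Wee1, measuring displacement of a rapidly reversible Oregon Green-labelled ATP-competitive probe by competitive inhibitors; values reported as Ki.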

T1 sequence (P30291 whole entry): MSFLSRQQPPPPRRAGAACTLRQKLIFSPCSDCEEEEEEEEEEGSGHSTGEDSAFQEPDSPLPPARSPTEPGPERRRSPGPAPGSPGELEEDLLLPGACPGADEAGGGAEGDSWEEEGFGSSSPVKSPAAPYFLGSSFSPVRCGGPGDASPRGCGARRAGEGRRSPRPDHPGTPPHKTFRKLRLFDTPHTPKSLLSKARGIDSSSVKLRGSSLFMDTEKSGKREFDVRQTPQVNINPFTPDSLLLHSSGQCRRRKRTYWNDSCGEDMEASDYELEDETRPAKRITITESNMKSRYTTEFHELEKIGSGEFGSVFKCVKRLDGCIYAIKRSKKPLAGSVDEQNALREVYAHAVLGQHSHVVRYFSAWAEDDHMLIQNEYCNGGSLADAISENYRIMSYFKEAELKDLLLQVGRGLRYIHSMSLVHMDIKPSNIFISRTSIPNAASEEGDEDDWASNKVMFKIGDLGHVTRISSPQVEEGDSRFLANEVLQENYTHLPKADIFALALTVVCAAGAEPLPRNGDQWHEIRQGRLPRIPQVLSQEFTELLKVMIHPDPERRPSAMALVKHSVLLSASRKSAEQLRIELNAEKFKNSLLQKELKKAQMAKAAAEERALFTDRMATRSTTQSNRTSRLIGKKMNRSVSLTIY

Compound | Ki
CC1(C)CN(S(C)(=O)=O)Cc2cc(Nc3ncc4c(=O)n(-c5c(Cl)cccc5Cl)c5nccn5c4n3)ccc21 [Example 319, 6-(2,6-dichlorophenyl)-2-{[4,4-dimethyl-2-(methylsulfonyl)-1,2,3,4-tetrahydroisoquinolin-7-yl]amino}imidazo[1,2-a]pyrimido[5,4-e]pyrimidin-5(6H)-one] | < 0.01 µM
CCN(CC)C(=O)C1CCCN(c2ccc(Nc3ncc4c(=O)n(-c5ccccc5Cl)c5nccn5c4n3)cc2)C1 (stereo not drawn) [Example 252, 1-(4-{[6-(2-chlorophenyl)-5-oxo-5,6-dihydroimidazo[1,2-a]pyrimido[5,4-e]pyrimidin-2-yl]amino}phenyl)-N,N-diethylpiperidine-3-carboxamide] | < 0.01 µM
CN1CCN(c2ccc(Nc3ncc4c(=O)n(-c5ccccc5C(F)(F)F)c5nccn5c4n3)cc2)CC1 [Example 15, 2-{[4-(4-methylpiperazin-1-yl)phenyl]amino}-6-[2-(trifluoromethyl)phenyl]imidazo[1,2-a]pyrimido[5,4-e]pyrimidin-5(6H)-one] | 0.01 to 0.1 µM
CC(C)n1c(=O)c2cnc(Nc3ccc4c(c3)CN(C)CC43CC3)nc2n2ccnc12 [Example 142, 2-[(2′-methyl-2′,3′-dihydro-1′H-spiro[cyclopropane-1,4′-isoquinolin]-7′-yl)amino]-6-(propan-2-yl)imidazo[1,2-a]pyrimido[5,4-e]pyrimidin-5(6H)-one] | 0.01 to 0.1 µM
O=c1c2cnc(Nc3ccc(N4CCN5CCCC5C4)cc3)nc2n2ccnc2n1-c1c(Cl)cccc1Cl (stereo not drawn) [Example 116, 6-(2,6-dichlorophenyl)-2-{[4-(hexahydropyrrolo[1,2-a]pyrazin-2(1H)-yl)phenyl]amino}imidazo[1,2-a]pyrimido[5,4-e]pyrimidin-5(6H)-one] | < 0.01 µM
CCCOc1ccc(CN2Cc3cc(Nc4ncc5c(=O)n(-c6ccccc6Cl)c6nccn6c5n4)ccc3C(C)(C)C2)cc1 [Example 357, 6-(2-chlorophenyl)-2-{[4,4-dimethyl-2-(4-propoxybenzyl)-1,2,3,4-tetrahydroisoquinolin-7-yl]amino}imidazo[1,2-a]pyrimido[5,4-e]pyrimidin-5(6H)-one] | 0.01 to 0.1 µM
CCN(CCN(C)C)c1ccc(Nc2ncc3c(=O)n(-c4c(Cl)cccc4Cl)c4nccn4c3n2)cc1 [Example 327, 6-(2,6-dichlorophenyl)-2-[(4-{[2-(dimethylamino)ethyl](ethyl)amino}phenyl)amino]imidazo[1,2-a]pyrimido[5,4-e]pyrimidin-5(6H)-one] | < 0.01 µM
COC(=O)c1ccc(Nc2ncc3c(=O)n(-c4c(Cl)cccc4Cl)c4nccn4c3n2)cc1 [Example 216, methyl 4-{[6-(2,6-dichlorophenyl)-5-oxo-5,6-dihydroimidazo[1,2-a]pyrimido[5,4-e]pyrimidin-2-yl]amino}benzoate] | < 0.01 µM
O=c1c2cnc(Nc3ccc(N4CCC(O)CC4)cc3)nc2n2ccnc2n1-c1c(Cl)cccc1Cl [Example 166, 6-(2,6-dichlorophenyl)-2-{[4-(4-hydroxypiperidin-1-yl)phenyl]amino}imidazo[1,2-a]pyrimido[5,4-e]pyrimidin-5(6H)-one] | < 0.01 µM
CN1CCC(c2ccc(Nc3ncc4c(=O)n(-c5ccccc5Cl)c5nccn5c4n3)cc2)CC1 [Example 38, 6-(2-chlorophenyl)-2-{[4-(1-methylpiperidin-4-yl)phenyl]amino}imidazo[1,2-a]pyrimido[5,4-e]pyrimidin-5(6H)-one] | < 0.01 µM
CN(C)[C@@H]1CCN(c2ccc(Nc3ncc4c(=O)n(-c5ccccc5Cl)c5nccn5c4n3)cc2)C1 [Example 230, 6-(2-chlorophenyl)-2-({4-[(3R)-3-(dimethylamino)pyrrolidin-1-yl]phenyl}amino)imidazo[1,2-a]pyrimido[5,4-e]pyrimidin-5(6H)-one] | < 0.01 µM
O=c1c2cnc(Nc3ccc4c(c3)CCNC4)nc2n2ccnc2n1-c1c(Cl)cccc1Cl [Example 122, 6-(2,6-dichlorophenyl)-2-(1,2,3,4-tetrahydroisoquinolin-6-ylamino)imidazo[1,2-a]pyrimido[5,4-e]pyrimidin-5(6H)-one] | < 0.01 µM
O=c1c2cnc(Nc3ccc4c(c3)CN(CC(F)F)CC43CC3)nc2n2ccnc2n1-c1c(F)cccc1Cl [Example 224, 6-(2-chloro-6-fluorophenyl)-2-{[2′-(2,2-difluoroethyl)-2′,3′-dihydro-1′H-spiro[cyclopropane-1,4′-isoquinolin]-7′-yl]amino}imidazo[1,2-a]pyrimido[5,4-e]pyrimidin-5(6H)-one] | < 0.01 µM
CS(=O)(=O)N1CC2(CN(c3ccc(Nc4ncc5c(=O)n(-c6c(Cl)cccc6Cl)c6nccn6c5n4)cc3)C2)C1 [Example 303, 6-(2,6-dichlorophenyl)-2-({4-[6-(methylsulfonyl)-2,6-diazaspiro[3.3]hept-2-yl]phenyl}amino)imidazo[1,2-a]pyrimido[5,4-e]pyrimidin-5(6H)-one] | < 0.01 µM
CCN(CC)CCCOc1ccc(Nc2ncc3c(=O)n(-c4ccccc4Cl)c4nccn4c3n2)cc1F [Example 50, 6-(2-chlorophenyl)-2-({4-[3-(diethylamino)propoxy]-3-fluorophenyl}amino)imidazo[1,2-a]pyrimido[5,4-e]pyrimidin-5(6H)-one] | < 0.01 µM
CC1(C)CN(C(=O)C2CC2)Cc2cc(Nc3ncc4c(=O)n(-c5c(F)cccc5Cl)c5nccn5c4n3)ccc21 [Example 311, 6-(2-chloro-6-fluorophenyl)-2-{[2-(cyclopropylcarbonyl)-4,4-dimethyl-1,2,3,4-tetrahydroisoquinolin-7-yl]amino}imidazo[1,2-a]pyrimido[5,4-e]pyrimidin-5(6H)-one] | < 0.01 µM
CN(C)C1Cc2ccc(Nc3ncc4c(=O)n(-c5ccccc5Cl)c5nccn5c4n3)cc2C1 (stereo not drawn) [Example 94, 6-(2-chlorophenyl)-2-{[2-(dimethylamino)-2,3-dihydro-1H-inden-5-yl]amino}imidazo[1,2-a]pyrimido[5,4-e]pyrimidin-5(6H)-one] | < 0.01 µM
CC(=O)Nc1ccc(Nc2ncc3c(=O)n(-c4ccccc4Cl)c4nccn4c3n2)cc1 [Example 57, N-(4-{[6-(2-chlorophenyl)-5-oxo-5,6-dihydroimidazo[1,2-a]pyrimido[5,4-e]pyrimidin-2-yl]amino}phenyl)acetamide] | 0.01 to 0.1 µM
CN(C)C1Cc2ccc(Nc3ncc4c(=O)n(-c5c(F)cccc5Cl)c5nccn5c4n3)cc2C1 (stereo not drawn) [Example 139, 6-(2-chloro-6-fluorophenyl)-2-{[2-(dimethylamino)-2,3-dihydro-1H-inden-5-yl]amino}imidazo[1,2-a]pyrimido[5,4-e]pyrimidin-5(6H)-one] | < 0.01 µM
CN1Cc2cc(Nc3ncc4c(=O)n(-c5c(Cl)cc(F)cc5Cl)c5nccn5c4n3)ccc2C2(CC2)C1 [Example 125, 6-(2,6-dichloro-4-fluorophenyl)-2-[(2′-methyl-2′,3′-dihydro-1′H-spiro[cyclopropane-1,4′-isoquinolin]-7′-yl)amino]imidazo[1,2-a]pyrimido[5,4-e]pyrimidin-5(6H)-one] | < 0.01 µM
O=c1c2cnc(Nc3ccc4cn[nH]c4c3)nc2n2ccnc2n1-c1c(Cl)cccc1Cl [Example 199, 6-(2,6-dichlorophenyl)-2-(1H-indazol-6-ylamino)imidazo[1,2-a]pyrimido[5,4-e]pyrimidin-5(6H)-one] | < 0.01 µM
CC(C)N1CCN(c2ccc(Nc3ncc4c(=O)n(-c5ccccc5Cl)c5nccn5c4n3)cc2)CC1 [Example 29, 6-(2-chlorophenyl)-2-({4-[4-(propan-2-yl)piperazin-1-yl]phenyl}amino)imidazo[1,2-a]pyrimido[5,4-e]pyrimidin-5(6H)-one] | < 0.01 µM
COCCN1CCN(c2ccc(Nc3ncc4c(=O)n(-c5ccccc5Cl)c5nccn5c4n3)cc2)CC1 [Example 64, 6-(2-chlorophenyl)-2-({4-[4-(2-methoxyethyl)piperazin-1-yl]phenyl}amino)imidazo[1,2-a]pyrimido[5,4-e]pyrimidin-5(6H)-one] | < 0.01 µM
Cc1cc(Nc2ncc3c(=O)n(-c4ccccc4Cl)c4nccn4c3n2)ccc1N1CCCNCC1 [Example 105, 6-(2-chlorophenyl)-2-{[4-(1,4-diazepan-1-yl)-3-methylphenyl]amino}imidazo[1,2-a]pyrimido[5,4-e]pyrimidin-5(6H)-one] | < 0.01 µM
CC1(C)CNCc2cc(Nc3ncc4c(=O)n(-c5c(Cl)cccc5Cl)c5nccn5c4n3)ccc21 [Example 307, 6-(2,6-dichlorophenyl)-2-[(4,4-dimethyl-1,2,3,4-tetrahydroisoquinolin-7-yl)amino]imidazo[1,2-a]pyrimido[5,4-e]pyrimidin-5(6H)-one] | < 0.01 µM
CN1CCC(NC(=O)c2ccc(Nc3ncc4c(=O)n(-c5c(Cl)cccc5Cl)c5nccn5c4n3)cc2)CC1 [Example 239, 4-{[6-(2,6-dichlorophenyl)-5-oxo-5,6-dihydroimidazo[1,2-a]pyrimido[5,4-e]pyrimidin-2-yl]amino}-N-(1-methylpiperidin-4-yl)benzamide] | < 0.01 µM
CN1CCCC1CCNc1ccc(Nc2ncc3c(=O)n(-c4c(Cl)cccc4Cl)c4nccn4c3n2)cc1 (stereo not drawn) [Example 273, 6-(2,6-dichlorophenyl)-2-[(4-{[2-(1-methylpyrrolidin-2-yl)ethyl]amino}phenyl)amino]imidazo[1,2-a]pyrimido[5,4-e]pyrimidin-5(6H)-one] | < 0.01 µM
O=C(Nc1ccc(Nc2ncc3c(=O)n(-c4ccccc4Cl)c4nccn4c3n2)cc1)c1ccncc1 [Example 61, N-(4-{[6-(2-chlorophenyl)-5-oxo-5,6-dihydroimidazo[1,2-a]pyrimido[5,4-e]pyrimidin-2-yl]amino}phenyl)pyridine-4-carboxamide] | < 0.01 µM
CC(C)NCCN(c1ccc(Nc2ncc3c(=O)n(-c4ccccc4Cl)c4nccn4c3n2)cc1)C(C)C [Example 271, 6-(2-chlorophenyl)-2-[(4-{propan-2-yl[2-(propan-2-ylamino)ethyl]amino}phenyl)amino]imidazo[1,2-a]pyrimido[5,4-e]pyrimidin-5(6H)-one] | < 0.01 µM
COCCN(CCOC)c1ccc(Nc2ncc3c(=O)n(-c4ccccc4Cl)c4nccn4c3n2)cc1 [Example 183, 2-({4-[bis(2-methoxyethyl)amino]phenyl}amino)-6-(2-chlorophenyl)imidazo[1,2-a]pyrimido[5,4-e]pyrimidin-5(6H)-one] | 0.01 to 0.1 µM
